Laboratory results from patent US5126436A (priority 1989, dated 1992).
Values after ≈ are worked out from the molar mass of the structure shown.

Key:
HeLa = test: Cell-killing activity; format: cell-based; conditions: Homo sapiens; HeLa cells; read-out: ID50 (concentration at which 50% of cancer cells are killed)
[1] = test system: Colletotrichum lagenarium IFO 7513; format: cell-based; conditions: Colletotrichum orbiculare, IFO7513; 20 μg/disc (diameter 8 mm); value in parentheses denotes a partial inhibition; read-out: Inhibition Circle
From the text: (§1) The value in paretheses in the table denotes a partial inhibition.

[2] = test system: Pseudomonas aeruginosa IFO 13130; format: cell-based; conditions: IFO13130, 20 μg/disc (diameter 8 mm), read-out: Inhibition Circle
From the text: as §1

Escherichia coli AB 1157 = format: cell-based; conditions: AB1157, 20 μg/disc (diameter 8 mm), read-out: Inhibition Circle
From the text: as §1

Escherichia coli BE 1186 = format: cell-based; conditions: BE1186, 20 μg/disc (diameter 8 mm), read-out: Inhibition Circle
From the text: as §1

[3] = test system: Candida albicans IFO 1594; format: cell-based; conditions: IFO1594, 20 μg/disc (diameter 8 mm), read-out: Inhibition Circle
From the text: as §1

Alternaria mali IFO 8984 = format: cell-based; conditions: IFO8984, 20 μg/disc (diameter 8 mm), read-out: Inhibition Circle
From the text: as §1

Chlorella vulgaris = format: cell-based; conditions: 20 μg/disc (diameter 8 mm), read-out: Inhibition Circle
From the text: as §1

Solubility = format: physicochemical
[4] = test system: Pyricularia oryzae IFO 5994; test: microbe, parasite or virus in culture; format: cell-based; conditions: IFO5994, read-out: Inhibition Circle
KB = test: Cell-killing activity; format: cell-based; conditions: Homo sapiens; KB cells; read-out: ID50 (concentration at which 50% of cancer cells are killed)

CC=C(C)C(O)C(C)C=C(C)C=CCC(C)=CCc1nc(OC)c(OC)c(OC2OC(C)C(O)C(O)C2O)c1C (stereo not drawn) gave an IC50 (HeLa) of 2.8 µg/mL (≈ 4.98 µM), a zone of inhibition at 20 µg/disc [1] of 13.3 mm and a zone of inhibition at 20 µg/disc [2] of 0 mm. It also gave a zone of inhibition at 20 µg/disc (Escherichia coli AB 1157) of 0 mm, a zone of inhibition at 20 µg/disc (Escherichia coli BE 1186) of 0 mm and a zone of inhibition at 20 µg/disc [3] of 0 mm. For the same compound, the zone of inhibition at 20 µg/disc (Alternaria mali IFO 8984) was 0 mm, the zone of inhibition at 20 µg/disc (Chlorella vulgaris) was 0 mm and the Solubility (Solubility; chloroform, dimethyl sulfoxide, methanol, acetone) was “Soluble in chloroform, dimethyl sulfoxide, methanol and acetone”. For the same compound, the Solubility (Solubility; n-hexane, water) was “Insoluble in n-hexane and water”, the zone of inhibition at 20 µg/disc [4] was 19.1 mm and the IC50 (KB) was 0.74 µg/mL (≈ 1.32 µM).
